A short description of one series: in vitro. Conditions: African green monkey.
For series [1], the system named is MERS-CoV. The series can be described thus: microbe, parasite or virus in culture. Conditions: Middle East respiratory syndrome-related coronavirus, Vero C1008, 48 h.
The test system of series [2] is MERS-CoV. The series is classed as cell-based.
Series [3] relates to MERS-CoV. The series is classed as cell-based. This is another data set of the same source.
In the next series the test system is MERS-CoV N protein. The series is classed as cell-based.
Series [4] has as its system MHV. The series is classed as cell-based, mouse hepatitis virus (MHV).
A further series has as its system PEDV. In kind it is cell-based, porcine epidemic diarrhea virus (PEDV).
The test system of series [5] is MERS-CoV. The series is classed as cell-based. This is another data set of the same source.
The subject of series [6] is SARS-CoV2. The series is classed as cell-based.
The target of series [7] is T1, MERS-CoV N-NTD (Middle East respiratory syndrome-related coronavirus, UniProt K9N4V7).
In series [8] the target is T1, MERS-CoV N-NTD. This is another data set of the same source.
For series [9], the target named is T2, full-length MERS-CoV N protein (Middle East respiratory syndrome-related coronavirus, UniProt K9N4V7).
For series [10], the target named is T2, full-length MERS-CoV N protein. The source holds these as a separate data set.
Series [11] shares this target. The source holds these as a separate data set.
The test system of series [12] is MERS-CoV.
The test system of series [13] is SARS-CoV2.
In series [14] the test system is MHV. The series can be described thus: MHV-infected mice treated with PSX-01 (clinical score, body weight, liver histology). Conditions: PSX-01 10 mM intraperitoneal.

Consider three molecules from patent US20230255935A1, “ANTI-VIRAL COMPOUNDS AND METHODS FOR SCREENING SAME AND TREATING VIRAL INFECTIONS” (priority 2020, published 2023).

SMILES strings stand for the structures. pEC50: −log10 of the molar value. Where two headings read alike, the source gives them in different places. Bounds are passed on as bounds.

With `O=C(OCc1ccccc1)N1c2ccccc2CC1CO` (centres unmarked) [Compound P1, benzyl 2-(hydroxymethyl)-1-indolinecarboxylate], the CC50 in the series “in vitro” was determined as 460 µM. In the series with MERS-CoV [1], the pEC50 is < 4.00.
For `CCc1cccc2c3c([nH]c12)C(CC)(CC(=O)O)OCC3` (centres unmarked) [Compound P2, etodolac], in that order: 570 µM and < 4.00.
With `CN(C)Cc1c[nH]c2ccc(OCc3ccccc3)cc12` [PSX-01, 5-benzyloxygramine], in the series on MERS-CoV [2], the “extracellular viral titer (plaque assay)” value was “affected the viral titer” and the “viral production (plaque assay)” value was “halted”. In the series with MERS-CoV [3], the “suppression of viral RNA replication” value came out at 40% and the “viral RNA replication” value was “halted”. In the series with MERS-CoV N protein, the N protein expression result is “suppressed N protein expression in most cells” and the “intracellular N protein distribution” value is listed as “condensation of the intracellular N protein fluorescence signal”. Also, in the series on MHV [4], the cytopathic effect result was “significantly reduce the cytopathic effect”. Moreover, in the series with PEDV, the cytopathic effect result is reported as “significantly reduce the cytopathic effect”. In addition, the cytopathic effect entry in the series on MERS-CoV [5] is given as “significantly reduce the cytopathic effect”. In addition, the “viral titer (plaque assay)” value with SARS-CoV2 [6] was “affected the viral titer”. Moreover, at MERS-CoV N-NTD [7], the “binding to the N protein relative to the other leads” value is “bound more tightly to the N protein than P1 or P2” and the “shift in the intrinsic N-NTD fluorescence spectrum” value was “comparatively larger blue shift”. Also, on MERS-CoV N-NTD [8], the “N-NTD denaturation melting temperature” value was 45 °C. Also, in [9], the “shift in the fluorescence spectrum of full-length N protein” value is recorded as ““blue shift” was observed”. Also, the “N protein thermal denaturation” value in [10] is “delayed N protein thermal denaturation”. The “maximum dimension (Dmax) of N protein” value in series [11] came out at 230. For the same molecule, in the series on MERS-CoV [12], the pEC50 was 4.49 and the “TI (CC50/EC50)” value is 25.1. Moreover, in the series on SARS-CoV2 [13], the pEC50 is 4.46 and the “TI (CC50/EC50)” value is 23. In addition, in the series on MHV [14] (4 h before MHV 10^4 pfu, mice), the “appearance (clinical score)” value was “prevent the appearance change caused by MHV”. For the same molecule, the “liver histology (H&E stain)” value in the series with MHV [14] (MHV infection, day 7) is “rescue the increases of adipocytes and inflammation”.

As usually defined, the pEC50 is the negative decadic logarithm of the EC50, by convention in mol/L.
